# Assay results as given in PMC5218480 (PLoS ONE, 2017).
# Test system: MV-4-11 cells
# Experiment: Gene expression microarray analysis (Affymetrix PrimeView) and GSEA
# Type: cell-based, human
# Design: RFU PODN (11730768_x_at) / Fold change /veh PODN (11730768_x_at) / RFU LINC00158 (11744669_a_at) / Fold change /veh LINC00158 (11744669_a_at) / RFU DUSP10 (11751237_a_at) / Fold change /veh DUSP10 (11751237_a_at) / RFU ID3 (11757404_x_at) / Fold change /veh ID3 (11757404_x_at) / RFU PLEKHG5 (11737974_s_at) / Fold change /veh PLEKHG5 (11737974_s_at) / RFU LRRC4B (11730491_at) / Fold change /veh LRRC4B (11730491_at) / RFU GIMAP4 (11747438_a_at) / Fold change /veh GIMAP4 (11747438_a_at) / RFU KRT8 (11758183_x_at) / Fold change /veh KRT8 (11758183_x_at) / RFU CNN1 (11734310_a_at) / Fold change /veh CNN1 (11734310_a_at) / RFU VPS37D (11726825_at) / Fold change /veh VPS37D (11726825_at) / RFU C10orf10 (11716522_x_at) / Fold change /veh C10orf10 (11716522_x_at) / RFU KIR2DL2 /// KIR2DL4 /// KIR2DL5A /// KIR2DL5B /// KIR2DS1 /// KIR2DS2 /// KIR2DS3 /// KIR2DS4 /// KIR3DL3 /// KIR3DL3 /// KIR3DS1 (11738374_at) / Fold change /veh KIR2DL2 /// KIR2DL4 /// KIR2DL5A /// KIR2DL5B /// KIR2DS1 /// KIR2DS2 /// KIR2DS3 /// KIR2DS4 /// KIR3DL3 /// KIR3DL3 /// KIR3DS1 (11738374_at) / RFU C1QL1 (11718748_at) / Fold change /veh C1QL1 (11718748_at) / RFU TMPRSS4 (11747572_a_at) / Fold change /veh TMPRSS4 (11747572_a_at) / RFU HAMP (11756126_x_at) / Fold change /veh HAMP (11756126_x_at) / RFU RNFT2 (11725882_a_at) / Fold change /veh RNFT2 (11725882_a_at) / RFU NR4A2 (11747474_a_at) / Fold change /veh NR4A2 (11747474_a_at) / RFU ABCC12 (11746883_a_at) / Fold change /veh ABCC12 (11746883_a_at) / RFU TMEM136 (11760407_x_at) / Fold change /veh TMEM136 (11760407_x_at) / RFU CLDN22 /// WWC2 (11732394_at) / Fold change /veh CLDN22 /// WWC2 (11732394_at) / RFU HLA-DPB1 (11760878_x_at) / Fold change /veh HLA-DPB1 (11760878_x_at) / RFU SPINT1 (11716480_a_at) / Fold change /veh SPINT1 (11716480_a_at) / RFU GAP43 (11754022_s_at) / Fold change /veh GAP43 (11754022_s_at) / RFU A4GNT (11735810_at) / Fold change /veh A4GNT (11735810_at) / RFU PRB3 (11715151_x_at) / Fold change /veh PRB3 (11715151_x_at) / RFU TUBB4B (11761932_at) / Fold change /veh TUBB4B (11761932_at) / RFU CAPN14 (11732068_a_at) / Fold change /veh CAPN14 (11732068_a_at) / RFU TMCC2 (11721928_a_at) / Fold change /veh TMCC2 (11721928_a_at) / RFU IRGQ (11745062_a_at) / Fold change /veh IRGQ (11745062_a_at) / RFU FAM174B (11720279_a_at) / Fold change /veh FAM174B (11720279_a_at) / RFU TMPRSS4 (11748680_a_at) / Fold change /veh TMPRSS4 (11748680_a_at) / RFU FAM212B (11763350_a_at) / Fold change /veh FAM212B (11763350_a_at) / RFU PLEKHG5 (11743358_a_at) / Fold change /veh PLEKHG5 (11743358_a_at) / RFU ZSCAN30 (11745921_a_at) / Fold change /veh ZSCAN30 (11745921_a_at) / RFU CMKLR1 (11741424_a_at) / Fold change /veh CMKLR1 (11741424_a_at) / RFU LOC101060620 /// MAPK8IP1 (11723275_at) / Fold change /veh LOC101060620 /// MAPK8IP1 (11723275_at) / RFU SPTSSB (11747773_x_at) / Fold change /veh SPTSSB (11747773_x_at) / RFU PRSS12 (11739890_at) / Fold change /veh PRSS12 (11739890_at) / RFU BIN1 (11741810_x_at) / Fold change /veh BIN1 (11741810_x_at) / RFU WNT11 (11732464_a_at) / Fold change /veh WNT11 (11732464_a_at) / RFU C10orf10 (11716521_a_at) / Fold change /veh C10orf10 (11716521_a_at) / RFU C5orf56 (11738089_at) / Fold change /veh C5orf56 (11738089_at) / RFU CYB561 (11721691_x_at) / Fold change /veh CYB561 (11721691_x_at) / RFU ANKRD19P (11752326_a_at) / Fold change /veh ANKRD19P (11752326_a_at) / RFU OR2T12 /// OR2T33 /// OR2T8 (11738714_s_at) / Fold change /veh OR2T12 /// OR2T33 /// OR2T8 (11738714_s_at) / RFU VCAN (11748164_a_at) / Fold change /veh VCAN (11748164_a_at) / RFU JSRP1 (11732532_at) / Fold change /veh JSRP1 (11732532_at) / RFU KRTAP10-11 (11738290_x_at) / Fold change /veh KRTAP10-11 (11738290_x_at) / RFU MYO3A (11730013_a_at) / Fold change /veh MYO3A (11730013_a_at) / RFU EBF3 (11725865_a_at) / Fold change /veh EBF3 (11725865_a_at) / RFU CAMK2N1 (11719241_x_at) / Fold change /veh CAMK2N1 (11719241_x_at) / RFU C5orf56 (11738088_a_at) / Fold change /veh C5orf56 (11738088_a_at) / RFU OLFML3 (11715873_a_at) / Fold change /veh OLFML3 (11715873_a_at) / RFU LOC100653217 /// NTM (11731650_a_at) / Fold change /veh LOC100653217 /// NTM (11731650_a_at) / RFU MAPK11 (11762145_a_at) / Fold change /veh MAPK11 (11762145_a_at) / RFU FIZ1 (11724087_x_at) / Fold change /veh FIZ1 (11724087_x_at) / RFU OASL (11726364_x_at) / Fold change /veh OASL (11726364_x_at) / RFU SOX15 (11748057_x_at) / Fold change /veh SOX15 (11748057_x_at) / RFU CD79A (11719716_a_at) / Fold change /veh CD79A (11719716_a_at) / RFU HIST1H1D (11736915_at) / Fold change /veh HIST1H1D (11736915_at) / RFU CASKIN2 (11723855_a_at) / Fold change /veh CASKIN2 (11723855_a_at) / RFU LOC730098 (11760151_x_at) / Fold change /veh LOC730098 (11760151_x_at) / RFU OR4N2 (11742367_at) / Fold change /veh OR4N2 (11742367_at) / RFU PRRT2 (11749266_a_at) / Fold change /veh PRRT2 (11749266_a_at) / RFU SNX32 (11753110_a_at) / Fold change /veh SNX32 (11753110_a_at) / RFU CDHR5 (11726645_a_at) / Fold change /veh CDHR5 (11726645_a_at) / RFU RCAN1 (11760418_a_at) / Fold change /veh RCAN1 (11760418_a_at) / RFU FAM167A (11723789_a_at) / Fold change /veh FAM167A (11723789_a_at) / RFU FAM26E (11764081_at) / Fold change /veh FAM26E (11764081_at) / RFU ISYNA1 (11749810_s_at) / Fold change /veh ISYNA1 (11749810_s_at) / RFU ACY1 (11761880_at) / Fold change /veh ACY1 (11761880_at) / RFU 11764098_at / Fold change /veh 11764098_at / RFU SAMD14 (11745864_x_at) / Fold change /veh SAMD14 (11745864_x_at) / RFU NPB (11741838_a_at) / Fold change /veh NPB (11741838_a_at) / RFU TMPRSS6 (11731388_a_at) / Fold change /veh TMPRSS6 (11731388_a_at) / RFU KRTAP10-2 (11738614_at) / Fold change /veh KRTAP10-2 (11738614_at) / RFU ARHGAP8 /// PRR5-ARHGAP8 (11727945_x_at) / Fold change /veh ARHGAP8 /// PRR5-ARHGAP8 (11727945_x_at) / RFU KRTAP5-7 /// NADSYN1 (11734609_at) / Fold change /veh KRTAP5-7 /// NADSYN1 (11734609_at) / RFU RASL12 (11751679_a_at) / Fold change /veh RASL12 (11751679_a_at) / RFU CDKN2B (11736163_a_at) / Fold change /veh CDKN2B (11736163_a_at) / RFU PRF1 (11729649_at) / Fold change /veh PRF1 (11729649_at) / RFU, ZNF638 /// ZNF638-IT1 / Fold change vs veh, ZNF638 /// ZNF638-IT1 / RFU, PANK3 / Fold change vs veh, PANK3 / RFU, SH3YL1 / Fold change vs veh, SH3YL1 / RFU, ZEB2 / Fold change vs veh, ZEB2 / RFU, NRIP1 / Fold change vs veh, NRIP1 / RFU, PTTG1IP / Fold change vs veh, PTTG1IP / RFU, CAPN2 / Fold change vs veh, CAPN2 / RFU, MED14 / Fold change vs veh, MED14 / RFU, SNORA58 / Fold change vs veh, SNORA58 / RFU, C1orf63 / Fold change vs veh, C1orf63 / RFU, LRRFIP1 / Fold change vs veh, LRRFIP1 / RFU, NDUFAF7 / Fold change vs veh, NDUFAF7 / RFU, SLC12A2 / Fold change vs veh, SLC12A2 / RFU, IBTK / Fold change vs veh, IBTK / RFU, ESF1 / Fold change vs veh, ESF1 / Fold change vs veh, TMEM50B / RFU, TAOK1 / Fold change vs veh, TAOK1 / RFU, ACBD3 / Fold change vs veh, ACBD3 / RFU, TMA16 / Fold change vs veh, TMA16 / RFU, RWDD3 / Fold change vs veh, RWDD3 / RFU, BCAT1 / Fold change vs veh, BCAT1 / RFU, EDEM3 / Fold change vs veh, EDEM3 / RFU, TMEM33 / Fold change vs veh, TMEM33 / RFU, WDR75 / Fold change vs veh, WDR75 / RFU, AHCTF1 / Fold change vs veh, AHCTF1 / RFU, TFRC / Fold change vs veh, TFRC / RFU, ZDHHC17 / Fold change vs veh, ZDHHC17 / RFU, NOM1 / Fold change vs veh, NOM1 / RFU, ARL8B / Fold change vs veh, ARL8B / RFU, ZBTB11 / Fold change vs veh, ZBTB11 / RFU, TAMM41 / Fold change vs veh, TAMM41 / RFU, KIAA1704 /// LOC100996395 / Fold change vs veh, KIAA1704 /// LOC100996395 / RFU, ING1 / Fold change vs veh, ING1 / RFU, TRMT61B / Fold change vs veh, TRMT61B / RFU, FUBP3 / Fold change vs veh, FUBP3 / RFU, TP53 / Fold change vs veh, TP53 / RFU, TNKS2 / Fold change vs veh, TNKS2 / RFU, ZFP14 / Fold change vs veh, ZFP14 / RFU, ACTR2 / Fold change vs veh, ACTR2 / RFU, PPP3R1 / Fold change vs veh, PPP3R1 / RFU, PIK3R1 / Fold change vs veh, PIK3R1 / RFU, HNRNPA1 / Fold change vs veh, HNRNPA1 / RFU, RNF170 / Fold change vs veh, RNF170 / RFU, ZNF28 / Fold change vs veh, ZNF28 / RFU, RNGTT / Fold change vs veh, RNGTT / RFU, OGT / Fold change vs veh, OGT / RFU, BRD1 / Fold change vs veh, BRD1 / RFU, MARS / Fold change vs veh, MARS / RFU, ZNF655 / Fold change vs veh, ZNF655 / RFU, FAHD1 / Fold change vs veh, FAHD1 / RFU, BDP1 / Fold change vs veh, BDP1 / RFU, LRRCC1 / Fold change vs veh, LRRCC1 / RFU, ARID1A / Fold change vs veh, ARID1A / RFU, ZNF146 / Fold change vs veh, ZNF146 / RFU, ZNF330 / Fold change vs veh, ZNF330 / RFU, GPN3 / Fold change vs veh, GPN3 / RFU, C9orf123 / Fold change vs veh, C9orf123 / RFU, N4BP2L2 / Fold change vs veh, N4BP2L2 / RFU, ARFIP1 / Fold change vs veh, ARFIP1 / RFU, FAM179B / Fold change vs veh, FAM179B / RFU, BCL10 / Fold change vs veh, BCL10 / RFU, UHRF1BP1L / Fold change vs veh, UHRF1BP1L / RFU, BET1 / Fold change vs veh, BET1 / RFU, CNOT2 / Fold change vs veh, CNOT2 / RFU, ZNF268 / Fold change vs veh, ZNF268 / Fold change vs veh, ZNF507 / RFU, DGCR2 / Fold change vs veh, DGCR2 / RFU, WDSUB1 / Fold change vs veh, WDSUB1 / Fold change vs veh, HSP90B1 /// MIR3652 / RFU, ADSS / Fold change vs veh, ADSS / RFU, GK / Fold change vs veh, GK / RFU, ZNF148 / Fold change vs veh, ZNF148 / RFU, TAF9 / Fold change vs veh, TAF9 / RFU, SLC1A5 / Fold change vs veh, SLC1A5 / RFU, SLMO2 / Fold change vs veh, SLMO2 / RFU, ABCC4 / Fold change vs veh, ABCC4 / RFU, LOC101060439 /// RAP1B / Fold change vs veh, LOC101060439 /// RAP1B / RFU, RFX7 / Fold change vs veh, RFX7 / RFU, GTPBP10 / Fold change vs veh, GTPBP10 / RFU, CNEP1R1 / Fold change vs veh, CNEP1R1 / RFU, BIVM-ERCC5 /// ERCC5 / Fold change vs veh, BIVM-ERCC5 /// ERCC5 / RFU, ILF3 / Fold change vs veh, ILF3 / RFU 11762660_at / Fold change /veh 11762660_at / RFU VCAN (11757783_s_at) / Fold change /veh VCAN (11757783_s_at) / RFU DDX43 (11728927_at) / Fold change /veh DDX43 (11728927_at) / RFU KRT8 (11758188_x_at) / Fold change /veh KRT8 (11758188_x_at) / RFU NKD1 (11759106_at) / Fold change /veh NKD1 (11759106_at) / RFU SRD5A1 (11742802_a_at) / Fold change /veh SRD5A1 (11742802_a_at) / RFU TPSAB1 /// TPSB2 (11721975_s_at) / Fold change /veh TPSAB1 /// TPSB2 (11721975_s_at) / RFU GSTM3 (11746129_a_at) / Fold change /veh GSTM3 (11746129_a_at) / RFU IL23R (11737362_x_at) / Fold change /veh IL23R (11737362_x_at) / RFU TMEM51 (11727254_a_at) / Fold change /veh TMEM51 (11727254_a_at) / RFU PIWIL2 (11732686_x_at) / Fold change /veh PIWIL2 (11732686_x_at) / RFU ORM1 (11744905_x_at) / Fold change /veh ORM1 (11744905_x_at) / RFU CCDC152 (11743942_at) / Fold change /veh CCDC152 (11743942_at) / RFU ECM1 (11717891_a_at) / Fold change /veh ECM1 (11717891_a_at) / RFU IL23R (11748794_a_at) / Fold change /veh IL23R (11748794_a_at) / RFU TNFAIP8L3 (11732012_x_at) / Fold change /veh TNFAIP8L3 (11732012_x_at) / RFU MBOAT4 (11741988_at) / Fold change /veh MBOAT4 (11741988_at) / RFU 11764193_at / Fold change /veh 11764193_at / RFU TMEM53 (11763286_at) / Fold change /veh TMEM53 (11763286_at) / RFU MAGEB2 (11727129_at) / Fold change /veh MAGEB2 (11727129_at) / RFU TMEM200A (11744735_a_at) / Fold change /veh TMEM200A (11744735_a_at) / RFU CCDC152 (11751479_a_at) / Fold change /veh CCDC152 (11751479_a_at) / RFU FAM211A (11726209_a_at) / Fold change /veh FAM211A (11726209_a_at) / RFU RGS16 (11746705_a_at) / Fold change /veh RGS16 (11746705_a_at) / RFU VCAN (11755009_s_at) / Fold change /veh VCAN (11755009_s_at) / RFU RHOB (11743442_s_at) / Fold change /veh RHOB (11743442_s_at) / RFU RGS16 (11720943_a_at) / Fold change /veh RGS16 (11720943_a_at) / RFU RGS16 (11720944_at) / Fold change /veh RGS16 (11720944_at) / RFU, VPS4B / Fold change vs veh, VPS4B / RFU, CREB1 / Fold change vs veh, CREB1 / RFU, DNAJC13 / Fold change vs veh, DNAJC13 / RFU, GNAQ / Fold change vs veh, GNAQ / RFU, CDK5R1 / Fold change vs veh, CDK5R1 / RFU, ZRANB3 / Fold change vs veh, ZRANB3 / RFU, CUL4A / Fold change vs veh, CUL4A / RFU, CCNY / Fold change vs veh, CCNY / RFU, UFL1 / Fold change vs veh, UFL1 / RFU, COG3 / Fold change vs veh, COG3 / RFU, DIAPH2 / Fold change vs veh, DIAPH2 / RFU, SKA2 / Fold change vs veh, SKA2 / RFU, AFF3 / Fold change vs veh, AFF3 / RFU, LMF1 / Fold change vs veh, LMF1 / RFU, IPO11 / Fold change vs veh, IPO11 / RFU, DFFB / Fold change vs veh, DFFB / RFU, FOXP1 / Fold change vs veh, FOXP1 / RFU, CARD8 / Fold change vs veh, CARD8 / RFU, STRN3 / Fold change vs veh, STRN3 / RFU, ADK / Fold change vs veh, ADK / RFU, RASSF2 / Fold change vs veh, RASSF2 / RFU, WIPF1 / Fold change vs veh, WIPF1 / RFU, LARP1B / Fold change vs veh, LARP1B / RFU, RASA1 / Fold change vs veh, RASA1 / RFU, RB1 / Fold change vs veh, RB1 / RFU, PPFIA1 / Fold change vs veh, PPFIA1 / RFU, MAT2A / Fold change vs veh, MAT2A / RFU, CCT5 / Fold change vs veh, CCT5 / RFU, WDR92 / Fold change vs veh, WDR92 / RFU, CUX1 / Fold change vs veh, CUX1 / RFU, TTC7A / Fold change vs veh, TTC7A / RFU, TMEM135 / Fold change vs veh, TMEM135 / RFU, DEPTOR / Fold change vs veh, DEPTOR / RFU, CPM / Fold change vs veh, CPM / RFU, DNAJB6 / Fold change vs veh, DNAJB6 / RFU, CACNA2D3 / Fold change vs veh, CACNA2D3 / RFU, DTX4 / Fold change vs veh, DTX4 / RFU, TFCP2 / Fold change vs veh, TFCP2 / RFU, GMCL1 /// GMCL1P1 / Fold change vs veh, GMCL1 /// GMCL1P1 / RFU, AEBP2 / Fold change vs veh, AEBP2 / RFU, SNHG1 /// SNORD22 /// SNORD25 /// SNORD26 /// SNORD27 /// SNORD28 /// SNORD29 /// SNORD31 / Fold change vs veh, SNHG1 /// SNORD22 /// SNORD25 /// SNORD26 /// SNORD27 /// SNORD28 /// SNORD29 /// SNORD31 / Fold change (Aza/veh), C12orf56 (ProbeSet 11735607_a_at) / Fold change (ACY-1035/veh), C12orf56 (ProbeSet 11735607_a_at) / Fold change (Aza/veh), FGFR1OP (ProbeSet 11751329_s_at) / Fold change (ACY-1035/veh), FGFR1OP (ProbeSet 11751329_s_at) / Fold change (Aza/veh), VPS36 (ProbeSet 11739960_a_at) / Fold change (ACY-1035/veh), VPS36 (ProbeSet 11739960_a_at) / RFU SYPL1 (11715823_x_at) / Fold change /veh SYPL1 (11715823_x_at) / RFU IGFBP7 (11715501_s_at) / Fold change /veh IGFBP7 (11715501_s_at) / RFU REEP3 (11722064_at) / Fold change /veh REEP3 (11722064_at) / RFU IGLL1 (11728026_x_at) / Fold change /veh IGLL1 (11728026_x_at): dose or concentration left out as unconfirmed
# Details: ProbeSet 11739106_a_at; LIST B
smiles,measurement,value
Nc1ccc(-c2cccs2)cc1NC(=O)c1ccc2c(c1)cc(C1CC1)n2CCN1CCOCC1 [ACY-1035],"RFU, TMEM33",263.53 RFU
